Data taken from ChEMBL document CHEMBL6103648, “AI-Driven Discovery of Highly Specific and Efficacious hCES2A Inhibitors for Ameliorating Irinotecan-Triggered Gut Toxicity” (J Med Chem, 2025).

Test: Inhibition of human CES2A using fluorescein diacetate as substrate preincubated for 3 mins followed by substrate addition measured after 30 mins by fluorescence based assay

SMILES | IC50 [nM]
CCOc1cc(C(=O)N2CCC(Cc3ccccc3)CC2)ccc1OC(=O)N(C)CC | 1.13
CCN(C)C(=O)Oc1ccc(/C=C/C(=O)N2CCC(c3ccccc3)CC2)cc1OC | 3.18
CCN(C)C(=O)Oc1ccc(CCC(=O)N2CCN(Cc3ccccc3)CC2)cc1OC | 57.3
CCN(C)C(=O)Oc1ccc(/C=C/C(=O)N2CCC(Cc3ccccc3)CC2)cc1 | 1.46
CCN(C)C(=O)Oc1ccc(C(=O)N2CCC(CCCc3ccccc3)CC2)cc1OC | 2.94
CCN(C)C(=O)Oc1ccc(CCC(=O)N2CCc3ccccc3C2)cc1 | 7.39
CN(C)C(=O)C(CCN1CCC(O)(c2ccc(Cl)cc2)CC1)(c1ccccc1)c1ccccc1 [LOPERAMIDE] | 404
CCN(C)C(=O)Oc1ccc(CCC(=O)N2CCC(c3ccccc3)CC2)cc1OC | 4.85
CNC(=O)COc1ccc(C(C)=O)cc1OC | 462
COc1cc(CCC(=O)N2CCC(Cc3ccccc3)CC2)ccc1OC(=O)N(C)C | 4.1
CCN(CC)C(=O)Oc1ccc(CCC(=O)N2CCC(Cc3ccccc3)CC2)cc1OC | 34
CCN(C)C(=O)Oc1ccc(C(=O)N2CCN(Cc3ccccc3)CC2)cc1OC | 5.93
CCN(C)C(=O)Oc1ccc(CCC(=O)N2CCc3ccccc3C2)cc1OC | 6.05
CCN(C)C(=O)Oc1ccc(C(=O)N2CCC(c3ccccc3)CC2)cc1OC | 1.47
CCN(C)C(=O)Oc1ccc(C(=O)N2CCC(C(=O)c3ccc(F)cc3)CC2)cc1OC | 10.3
COc1cc(CCC(=O)N2CCC(Cc3ccccc3)CC2)ccc1OC(=O)N1CCOCC1 | 7.27
CCN(C)C(=O)Oc1ccc(CCC(=O)N2CCC(Cc3ccccc3)CC2)cc1OC | 3.31
CCN(CC)C(=O)COc1ccc(C(C)=O)cc1OC | 460
CCN(C)C(=O)Oc1ccc(C(=O)N2CCC(Cc3ccc(F)cc3)CC2)cc1OC | 1.31
CCN(C)C(=O)Oc1ccc(C(=O)N2CCc3ccccc3C2)cc1OC | 2.06
CCN(C)C(=O)Oc1ccc(C(=O)N2CCC(Cc3ccccc3)CC2)cc1OCC1CC1 | 1.02
